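Method: 48-hour compound exposure of cells in 96-well plates, five concentrations, linear interpolation of endpoints. TGI: concentration producing complete growth inhibition.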
Tests used:
Assay in all cases: DTP human tumour cell line panel, 48 h
RPMI-8226 leukemia = system: RPMI-8226 leukemia
OVCAR-3 ovarian = system: OVCAR-3 ovarian
SK-MEL-2 melanoma = system: SK-MEL-2 melanoma
NCI-H460 lung = system: NCI-H460 lung
SF-268 CNS = system: SF-268 CNS
UO-31 renal = system: UO-31 renal
MOLT-4 leukemia = system: MOLT-4 leukemia
M14 melanoma = system: M14 melanoma
A549 NSCLC = system: A549 NSCLC
HCC-2998 colon = system: HCC-2998 colon

| SMILES | TGI (RPMI-8226 leukemia) | TGI (OVCAR-3 ovarian) | TGI (SK-MEL-2 melanoma) | TGI (NCI-H460 lung) | TGI (SF-268 CNS) | TGI (UO-31 renal) | TGI (MOLT-4 leukemia) | TGI (M14 melanoma) | TGI (A549 NSCLC) | TGI (HCC-2998 colon) |
| --- | --- | --- | --- | --- | --- | --- | --- | --- | --- | --- |
| COC(OC)[C@@H]1OC[C@H](n2cnc3c(N)ncnc32)[C@H]1O | > 100 µM | > 100 µM | > 100 µM | > 100 µM | > 100 µM | > 100 µM | > 100 µM | > 100 µM | > 100 µM | > 100 µM |
| Cc1cc(-c2nc3cc(F)ccc3s2)ccc1NC(=O)[C@@H](N)CCCCN | 4.88 µM | 22.5 µM | 8.76 µM | 2.24 µM | 22.6 µM | 13.9 µM | 7.24 µM | 4.86 µM | 3.88 µM | 6.85 µM |
| OC1(c2ccccc2)CCN(Cc2c[nH]c3ccccc23)CC1 | > 100 µM | > 100 µM | 36.1 µM | > 100 µM | > 100 µM | > 100 µM | > 100 µM | 35 µM | > 100 µM | 31.6 µM |
| Cc1ccc([S@](=O)c2occc2C=O)cc1 | 8.04 µM | 6.41 µM | 29.2 µM | 33.8 µM | 14.9 µM | 23.2 µM | 4.16 µM | 20.7 µM | 46.5 µM | 29.3 µM |
| Cc1ccc(/C(O)=C/c2nc3ccccc3sc2=O)c(C)c1 | 77.6 µM | > 100 µM | > 100 µM | > 100 µM | > 100 µM | > 100 µM | > 100 µM | > 100 µM | > 100 µM | > 100 µM |
| CC1C(=O)N(c2ccccc2)NC12CCCc1ccccc12 (stereo not given) | > 100 µM | > 100 µM | > 100 µM | > 100 µM | > 100 µM | > 100 µM | > 100 µM | > 100 µM | > 100 µM | > 100 µM |
| COc1ccc(C2=Nc3cc(C)c(C)cc3NC(c3ccccc3)C2)cc1 (stereo not given) | > 100 µM | > 100 µM | > 100 µM | > 100 µM | > 100 µM | > 100 µM | > 100 µM | > 100 µM | > 100 µM | > 100 µM |
| COc1c(O)c(C=O)c2c(O)c(-c3c(C)cc4c(C(C)C)c(OC)c(O)c(C=O)c4c3O)c(C)cc2c1C(C)C | 22.4 µM | 10.7 µM | 11.1 µM | 16.1 µM | 23.5 µM | 11.1 µM | 27.9 µM | 22.2 µM | 11.6 µM | 5.34 µM |
| CN(C)c1nc(N)nc(CS)n1 | > 100 µM | > 100 µM | > 100 µM | > 100 µM | > 100 µM | > 100 µM | > 100 µM | > 100 µM | > 100 µM | > 100 µM |
| O=S(Nc1ccccc1)c1ccc(N2CCOCC2)cc1 (stereo not given) | > 100 µM | > 100 µM | > 100 µM | > 100 µM | > 100 µM | 42.7 µM | > 100 µM | > 100 µM | > 100 µM | > 100 µM |
| CSCSSC | > 100 µM | > 100 µM | > 100 µM | > 100 µM | > 100 µM | > 100 µM | 90.3 µM | > 100 µM | > 100 µM | > 100 µM |

From PubChem BioAssay (NCI)
